Results reported in publication PMC10447267, “Assessment of the potential of the MET inhibitor tepotinib to affect the pharmacokinetics of CYP3A4 and P-gp substrates” (Investigational New Drugs, 2023).
Where two headings read alike, the source gives them in different places.

Experiments:
P-gp = P-gp (Homo sapiens, UniProt P08183); assay: Study 2 (NCT03492437): effect of tepotinib on dabigatran pharmacokinetics in healthy participants; format: in vivo; details: clinical; tepotinib 500 mg QD
Method: Study 1 (NCT03628339) and Study 2 (NCT03492437) were both Phase 1, open-label, single sequence, 2-period studies in 12 and 20 healthy participants, respectively (Fig. 1).
In Period 2 (Days 4 to 14), participants received 500 mg tepotinib QD on Days 4 to 11. […] Blood samples for trough concentrations of tepotinib were collected on Days 9 and 10. Further blood samples for tepotinib and its metabolites were also collected up to 24 h postdose on Day 10.
Parameters included maximum plasma concentration (Cmax) and time to reach Cmax (Tmax) taken directly from the observed data. Area under the plasma concentration–time curve (AUC) from time 0 to the last measured concentration (AUC0-t), AUC over the dose interval (AUCtau) and AUC extrapolated to infinity (AUC0-∞) were calculated using the mixed log/linear trapezoidal rule. Terminal elimination half-life (t1/2) was calculated as ln(2)/λz where λz is the terminal rate constant. The primary pharmacokinetic parameters in both studies were Cmax, AUC0-t and AUC0-∞.
A similar statistical approach was taken for both studies. […] Point estimates and CIs were back-transformed to the original scale.

CYP3A4/5 [1] = assay: CYP3A4/5 inhibition in pooled human liver microsomes; format: in vitro ADME; details: for inhibition at 49.5 µM / IC50: human, microsomes
Method: The potential of tepotinib and MSC2571109A to inhibit CYP450 enzymes CYP1A2, 2A6, 2B6, 2C8, 2C9, 2C19, 2D6, 2E1, and 3A4/5 in vitro was evaluated using CYP-catalyzed reactions in pooled mixed-gender human liver microsomes using specific substrates and liquid chromatography/tandem mass spectrometry (LC–MS/MS) readouts. […] […] Assessments of mechanism-based inhibition of the above listed CYP450 enzymes were conducted after pre-incubation of the microsomes with tepotinib or MSC2571109A. A brief summary of the incubation methods, including details of substrates used for the other CYP enzymes (which are not pertinent to this article) are presented in Online Resource 1. The LC–MS/MS-based methods used were consistent with those previously described in the literature.

CYP1A2 = target: T1, CYP1A2 (Homo sapiens, UniProt P05177); assay: CYP1A2 inhibition in pooled human liver microsomes; format: in vitro ADME; details: for inhibition at 49.5 µM: both sexes, human, microsomes
T1 construct: pooled mixed-gender human liver microsomes; from tissue; host or cells: pooled mixed-gender human liver microsomes
T1 sequence (P05177 1-516): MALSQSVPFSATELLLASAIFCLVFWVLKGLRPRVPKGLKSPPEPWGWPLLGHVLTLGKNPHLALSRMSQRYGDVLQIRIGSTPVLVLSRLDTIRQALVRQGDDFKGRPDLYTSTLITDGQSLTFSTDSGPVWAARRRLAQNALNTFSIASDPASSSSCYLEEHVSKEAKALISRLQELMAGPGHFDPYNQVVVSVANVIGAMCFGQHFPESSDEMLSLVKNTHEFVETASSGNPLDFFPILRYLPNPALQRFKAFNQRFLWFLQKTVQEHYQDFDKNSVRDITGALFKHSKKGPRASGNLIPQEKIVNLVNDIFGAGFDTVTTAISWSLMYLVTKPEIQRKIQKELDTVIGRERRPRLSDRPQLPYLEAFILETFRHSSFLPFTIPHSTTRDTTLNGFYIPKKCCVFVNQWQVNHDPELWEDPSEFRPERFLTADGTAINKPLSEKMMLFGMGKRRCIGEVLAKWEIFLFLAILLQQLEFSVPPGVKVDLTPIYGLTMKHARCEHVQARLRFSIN
Method: (§1) The potential of tepotinib and MSC2571109A to inhibit CYP450 enzymes CYP1A2, 2A6, 2B6, 2C8, 2C9, 2C19, 2D6, 2E1, and 3A4/5 in vitro was evaluated using CYP-catalyzed reactions in pooled mixed-gender human liver microsomes using specific substrates and liquid chromatography/tandem mass spectrometry (LC–MS/MS) readouts. […] Testosterone 6β-hydroxylation was assessed in the MSC2571109A study. Assessments of mechanism-based inhibition of the above listed CYP450 enzymes were conducted after pre-incubation of the microsomes with tepotinib or MSC2571109A. A brief summary of the incubation methods, including details of substrates used for the other CYP enzymes (which are not pertinent to this article) are presented in Online Resource 1. The LC–MS/MS-based methods used were consistent with those previously described in the literature.

CYP1A1/2 = CYP1A1/2 activity induction in primary human hepatocyte cultures; format: in vitro ADME; details: enzyme activity quantification
Method: (§2) In vitro studies in primary human hepatocyte cultures were conducted to assess the potential of tepotinib to induce human CYP1A1/2, 2B6 and 3A4/5 activity, the latter based on testosterone 6β-hydroxylation reactions (Online Resource 2). […] The studies included positive (rifampin) and vehicle (DMSO) controls. A negative control (flumazenil) was also included in the mRNA studies. The study designs, test systems and selection of prototypical inducers used in these studies were consistent with PhRMA, FDA and EMA guidelines.

[2] = Safety and tolerability in the two clinical studies; format: in vivo, human; details: healthy participants; tepotinib 500 mg once daily, both studies
Method: Safety and tolerability were also assessed throughout each study.

[3] = Tepotinib steady-state pharmacokinetics at the clinical dose; details: human, in vivo, oral, 500 mg
CYP2C9 = target: T2, CYP2C9 (Homo sapiens, UniProt P11712); assay: CYP2C9 inhibition in pooled human liver microsomes; format: in vitro ADME; details: for inhibition at 49.5 µM: both sexes, human, pooled human liver microsomes, probe diclofenac
T2 construct: pooled mixed-gender human liver microsomes; from tissue; host or cells: pooled mixed-gender human liver microsomes
T2 sequence (P11712 whole entry): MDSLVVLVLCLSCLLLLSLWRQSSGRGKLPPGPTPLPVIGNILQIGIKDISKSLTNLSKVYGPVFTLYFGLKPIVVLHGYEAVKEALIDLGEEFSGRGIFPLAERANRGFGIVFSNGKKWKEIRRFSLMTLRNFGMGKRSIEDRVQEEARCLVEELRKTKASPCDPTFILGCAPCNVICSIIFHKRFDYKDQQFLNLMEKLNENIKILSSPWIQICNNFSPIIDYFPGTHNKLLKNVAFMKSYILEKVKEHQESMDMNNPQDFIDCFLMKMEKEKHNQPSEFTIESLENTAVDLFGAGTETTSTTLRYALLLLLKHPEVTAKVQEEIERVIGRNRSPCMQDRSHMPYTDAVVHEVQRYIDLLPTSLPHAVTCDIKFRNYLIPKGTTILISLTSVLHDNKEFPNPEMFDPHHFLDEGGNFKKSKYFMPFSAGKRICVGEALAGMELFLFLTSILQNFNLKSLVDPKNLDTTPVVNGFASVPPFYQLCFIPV
Method: as §1

[4] = substance not given, taken as tepotinib; ref the healthcare business of Merck KGaA, Darmstadt, Germany, data on file; cited from earlier work
[5] = human mass balance study; cited from earlier work
CYP3A4/5 [6] = format: in vitro ADME, human
Method: as §2

Chain of P-gp (P08183 whole entry): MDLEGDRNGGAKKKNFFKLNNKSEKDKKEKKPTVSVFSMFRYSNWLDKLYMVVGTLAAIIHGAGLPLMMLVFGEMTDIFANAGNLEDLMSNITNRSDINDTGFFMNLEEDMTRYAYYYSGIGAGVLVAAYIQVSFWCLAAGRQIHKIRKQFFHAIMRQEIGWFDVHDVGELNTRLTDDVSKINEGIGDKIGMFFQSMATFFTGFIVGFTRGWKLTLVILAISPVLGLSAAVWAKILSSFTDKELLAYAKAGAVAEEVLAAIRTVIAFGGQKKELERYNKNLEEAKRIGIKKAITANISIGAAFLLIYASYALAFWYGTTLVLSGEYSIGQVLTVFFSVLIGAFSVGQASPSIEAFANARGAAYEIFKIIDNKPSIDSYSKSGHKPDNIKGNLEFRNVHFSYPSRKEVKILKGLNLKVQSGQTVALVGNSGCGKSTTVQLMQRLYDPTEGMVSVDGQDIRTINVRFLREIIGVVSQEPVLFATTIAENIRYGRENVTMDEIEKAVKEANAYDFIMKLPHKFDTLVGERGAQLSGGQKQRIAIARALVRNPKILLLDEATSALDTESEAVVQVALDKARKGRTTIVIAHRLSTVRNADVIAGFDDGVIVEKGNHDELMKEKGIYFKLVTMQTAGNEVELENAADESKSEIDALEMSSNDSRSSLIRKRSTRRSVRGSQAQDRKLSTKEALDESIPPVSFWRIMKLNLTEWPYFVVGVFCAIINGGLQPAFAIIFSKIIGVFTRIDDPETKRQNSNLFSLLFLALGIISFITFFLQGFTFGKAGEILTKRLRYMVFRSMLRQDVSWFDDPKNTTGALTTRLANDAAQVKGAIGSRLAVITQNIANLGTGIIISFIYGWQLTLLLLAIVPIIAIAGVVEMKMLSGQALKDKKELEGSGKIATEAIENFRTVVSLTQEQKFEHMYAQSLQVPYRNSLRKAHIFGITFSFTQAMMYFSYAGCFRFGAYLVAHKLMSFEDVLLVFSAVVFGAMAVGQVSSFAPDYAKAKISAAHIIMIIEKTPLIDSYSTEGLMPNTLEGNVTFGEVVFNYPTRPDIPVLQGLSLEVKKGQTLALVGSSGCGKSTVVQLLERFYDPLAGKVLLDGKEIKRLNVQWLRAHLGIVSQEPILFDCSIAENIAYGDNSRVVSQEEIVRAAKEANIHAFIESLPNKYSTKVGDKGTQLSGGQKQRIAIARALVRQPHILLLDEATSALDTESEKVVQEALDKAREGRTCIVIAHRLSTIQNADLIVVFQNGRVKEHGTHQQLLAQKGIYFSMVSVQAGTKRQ

CN1CCC(COc2cnc(-c3cccc(Cn4nc(-c5cccc(C#N)c5)ccc4=O)c3)nc2)CC1 [tepotinib]
Inhibition of P-gp-mediated efflux transport of dabigatran etexilate (in words) (P-gp): weak inhibitor | Potential for time-dependent inhibition (CYP3A4/5 [1]; Midazolam 6β-hydroxylation): Little or No | Potential for time-dependent inhibition (CYP3A4/5 [1]; Nifedipine oxidation): Little or No | Potential for time-dependent inhibition (CYP3A4/5 [1]; Testosterone 1’-hydroxylation): Little or No | inhibition at 49.5 µM (CYP3A4/5 [1]; both sexes, Midazolam 6β-hydroxylation, 30-min preincubation, read-out: Time-dependent inhibition, maximum inhibition at 49.5 µM): 60% | IC50 (CYP3A4/5 [1]; both sexes, Midazolam 6β-hydroxylation, 30-min preincubation, read-out: Time-dependent inhibition IC50): 33 µM | inhibition at 49.5 µM (CYP3A4/5 [1]; both sexes, Midazolam 6β-hydroxylation, zero-minute preincubation, read-out: Direct inhibition, maximum inhibition at 49.5 µM): 66% | inhibition at 49.5 µM (CYP3A4/5 [1]; both sexes, Nifedipine oxidation, 30-min preincubation, read-out: Time-dependent inhibition, maximum inhibition at 49.5 µM): 71% | IC50 (CYP3A4/5 [1]; both sexes, Nifedipine oxidation, 30-min preincubation, read-out: Time-dependent inhibition IC50): 25 µM | inhibition at 49.5 µM (CYP3A4/5 [1]; both sexes, Nifedipine oxidation, zero-minute preincubation, read-out: Direct inhibition, maximum inhibition at 49.5 µM): 64% | inhibition at 49.5 µM (CYP3A4/5 [1]; both sexes, Testosterone 1’-hydroxylation, 30-min preincubation, read-out: Time-dependent inhibition, maximum inhibition at 49.5 µM): 59% | IC50 (CYP3A4/5 [1]; both sexes, Testosterone 1’-hydroxylation, 30-min preincubation, read-out: Time-dependent inhibition IC50): 37 µM | inhibition at 49.5 µM (CYP3A4/5 [1]; both sexes, Testosterone 1’-hydroxylation, zero-minute preincubation, read-out: Direct inhibition, maximum inhibition at 49.5 µM): 62% | IC50 (CYP3A4/5 [1]; both sexes, human liver microsomes, Midazolam 6β-hydroxylation, zero-minute preincubation, read-out: Direct inhibition IC50): 25 µM | IC50 (CYP3A4/5 [1]; both sexes, human liver microsomes, Nifedipine oxidation, zero-minute preincubation, read-out: Direct inhibition IC50): 26 µM | IC50 (CYP3A4/5 [1]; both sexes, human liver microsomes, Testosterone 1’-hydroxylation, zero-minute preincubation, read-out: Direct inhibition IC50): 31 µM | IC50 (CYP3A4/5 [1]; both sexes, in vitro, abstract summary, read-out: IC50, direct or time-dependent CYP3A4/5 inhibition): > 15 µM | Ki (CYP3A4/5 [1]; both sexes, human liver microsomes, read-out: Ki, CYP3A4/5-catalyzed probe substrate reactions): ≥ 11 µM | Direct inhibition of CYP3A4/5 (in words) (CYP3A4/5 [1]; in vitro): weak direct inhibitors | IC50 (CYP1A2): > 49.5 µM | Potential for time-dependent inhibition (CYP1A2; Phenacetin O-dealkylation): Little or No | inhibition at 49.5 µM (CYP1A2; Phenacetin O-dealkylation, 30-min preincubation, read-out: Time-dependent inhibition, maximum inhibition at 49.5 µM): 26% | inhibition at 49.5 µM (CYP1A2; Phenacetin O-dealkylation, zero-minute preincubation, read-out: Direct inhibition, maximum inhibition at 49.5 µM): 11% | IC50 (CYP1A2; read-out: Time-dependent inhibition IC50, Phenacetin O-dealkylation, 30-min preincubation): > 49.5 µM | Induction of CYP1A1/2 activity (CYP1A1/2): less than 40 % of positive control | Safety and tolerability (in words) [2]: safe and well tolerated | Tmax ([3]; Median steady state Tmax): 8 h | Tmax ([3]; Steady state Tmax, range): 2 to 24 h | Potential for time-dependent inhibition (CYP2C9; Diclofenac 4-hydroxylation): Little or No | IC50 (CYP2C9; Diclofenac 4-hydroxylation, 30-min preincubation, read-out: Time-dependent inhibition IC50): 23 µM | inhibition at 49.5 µM (CYP2C9; Diclofenac 4-hydroxylation, 30-min preincubation, read-out: Time-dependent inhibition, maximum inhibition at 49.5 µM): 52% | inhibition at 49.5 µM (CYP2C9; Diclofenac 4-hydroxylation, zero-minute preincubation, read-out: Direct inhibition, maximum inhibition at 49.5 µM): 58% | IC50 (CYP2C9; human liver microsomes, Diclofenac 4-hydroxylation, zero-minute preincubation, read-out: Direct inhibition IC50): 27 µM | Ki (CYP2C9; human liver microsomes, direct inhibition, read-out: Ki, CYP2C9-catalyzed probe substrate reaction): ≥ 11 µM | Geometric mean free Cmax [4]: 52.4 nM | Share of total circulating radioactivity in plasma [5]: 55% | Induction of CYP3A4/5 activity (in words) (CYP3A4/5 [6]; in vitro): did not induce | Induction of CYP3A4/5 activity (CYP3A4/5 [6]; primary human hepatocyte cultures, enzyme activity quantification (testosterone 6β-hydroxylation)): less than 40 % of positive control
